Source: patent US20160264593A1 (priority 2013, published 2016)
Where two headings read alike, the source gives them in different places.

Assay: Pharmacokinetic study of 153 (and metabolite endothal) in SD rats, iv and po; plasma, liver, brain
Assay type: in vivo
Conditions: for 153 plasma concentration (title) / Liver concentration: PO per title; for MRT last: read-out: MRT (0-t)
Description: The blood, liver and brain tissue samples were collected at predetermined times from rats. […] Compound were diluted shortly before use in 4% sodium bicarbonate for sterile injection (this is the standard pediatric solution of NaHCO3 with a pH of about 8.5).
Compound 153 was freshly prepared by diluting the drugs shortly before use in 4% sodium bicarbonate for sterile injection (this is the standard pediatric solution of NaHCO3 with a pH of about 8.5). The final concentrations of 153 solutions were 0.25 mg/mL. The 153 solutions were administered via iv or po route at dose volume of 5 ml/kg according to the latest body weight. Compound 157 was freshly prepared by diluting the drugs shortly before use in 4% sodium bicarbonate for sterile injection (this is the standard pediatric solution of NaHCO3 with a pH of about 8.5). The final concentrations of […] solutions were 0.3 mg/mL. The 157 solutions were administered via iv or po route at dose volume of 5 ml/kg according to the latest body weight.
Twelve (12) female SD rats per group were dosed by iv with 153 or 157. The rats were fasted overnight prior to dosing, with free access to water. Foods were withheld for 2 hours post-dose. Blood, liver and brain tissue samples in two animals each group were collected at each time point, within 10% of the scheduled time for each time point. Two extra animals were used for analytic method development.
Blood (>0.3 mL) were collected via aorta abdominalis in anaesthetic animals into tubes containing heparin at 15 min, 1, 2, 6, 10 and 24 hours after iv administration. Liver and brain tissues were collected immediately after animal death. The liver and brain tissues were excised and rinsed with cold saline to avoid blood residual. Upon collection, each sample was placed on ice and the blood samples were subsequently centrifuged (4° C., 11000 rpm, 5 min) to separate plasma. The obtained plasma, liver and brain tissue samples were stored at −70° C. until LC-MS/MS analysis.
Two (2) female SD rats per group were dosed by po with 153 or 157. The rats were fasted overnight prior to dosing, with free access to water. Foods were withheld for 2 hours post-dose. Blood samples (>0.3 mL) were collected via aorta abdominalis in anaesthetic animals into tubes containing heparin at 30 min, 1, 2, 6, 10 and 24 hours after po administration.
To each sample, 20 μL IS-D (for blank samples, 20 μL acetonitrile:water (1:1) was added) and 300 μl acetonitrile was added. The sample mixture was vortexed for approximately 3 min. After centrifugation at 10000 rpm for 5 min at 4° C., 100 μL of the upper layer was transferred to a new tube and added 200 μL 0.4% formic acid in water (pH 6.0). The mixture was vortexed for approximately 3 min before injected onto the LC/MS/MS system for analysis.
On the day of the assay, the frozen liver and brain samples were thawed unassisted at room temperature. An about 200 mg weighed sample of each thawed tissue was placed into a plastic tube with water (0.6 mL) to facilitate homogenization. Tissue processing was conducted using a homogenizer for approximately 1 min, 200 μl homogenate was transferred into a fresh Eppendorf tube. To each tube, 50 μL IS-D was added and mixed. Then 600 μl acetonitrile was added and the sample mixture was vortexed for approximately 3 min. After centrifugation at 10000 rpm for 5 min at 4° C., 400 μL of the upper layer was transferred to a new tube and evaporate the supernatant to dryness at 35° C. Reconstitute the residue with 200 μL of 0.4% formic acid in water (pH6.0), and vortex for 3 min, submit for LC-MS/MS analysis.
Frozen unknown plasma samples were completely thawed at room temperature and vortexed thoroughly. With a pipette, 50 μL of plasma was transferred into a 2.0 mL Eppendorf tube. 50 μL of 0.1N HCl and 800 μL ethyl acetate were added into each sample. The sample mixture was vortexed for approximately 3 min.

[1] = female, SD, rat, in vivo, iv, 1.25 mg/kg, 153 in plasma, IV 1.25 mg/kg, Mean
[2] = female, SD, rat, in vivo, iv, 1.25 mg/kg, 153 in plasma, IV 1.25 mg/kg, rat 1
[3] = female, SD, rat, in vivo, iv, 1.25 mg/kg, 153 in plasma, IV 1.25 mg/kg, rat 2

## CCCOC(=O)C1C2CCC(O2)C1C(=O)N1CCN(C)CC1 (stereo not drawn) [Compound 153, 3-(4-Methylpiperazine-1-carbonyl)-7-oxa-bicyclo[2,2,1]heptane-2-carboxylic acid propyl ester]
153, PO 1.25 mg/kg vs IV 1.25 mg/kg, Mean
  F: 55.41%
153 administered to rats
  conversion to endothal in the plasma (statement): converted to endothal
153 in plasma, IV 1.25 mg/kg, Mean
  Tmax: 15 min
153 in plasma, IV 1.25 mg/kg, rat 2
  Tmax: 15 min
153 in plasma, PO 1.25 mg/kg, rat 2
  Tmax: 30 min
153 iv 1.25 mg/kg
  AUClast of 153 in brain: 39.4 ng·h/g
  AUClast of 153 in liver: 500 ng·h/g
153 po 1.25 mg/kg
  oral availability of 153 (statement): orally available
Brain, 1.25 mg/kg IV, Mean
  AUC: 39.4 ng·h/mL
  AUC0-∞: 39.35 ng·h/mL
  Tmax: 15 min
Brain, 1.25 mg/kg IV, rat 1
  AUC: 39.2 ng·h/mL
  AUC0-∞: 39.2 ng·h/mL
  Tmax: 15 min
Brain, 1.25 mg/kg IV, rat 2
  AUC: 39.5 ng·h/mL
  AUC0-∞: 39.5 ng·h/mL
  Tmax: 15 min
Liver, 1.25 mg/kg IV, Mean
  AUC: 500 ng·h/mL
  AUC0-∞: 500 ng·h/mL
Liver, 1.25 mg/kg IV, rat 1
  AUC: 547 ng·h/mL
  AUC0-∞: 547 ng·h/mL
  Tmax: 15 min
Liver, 1.25 mg/kg IV, rat 2
  AUC: 453 ng·h/mL
  AUC0-∞: 453 ng·h/mL
  Tmax: 15 min
1.25 mg/kg, 6 hr, Rat 1
  153 plasma concentration (title) / Liver concentration: BLQ
1.25 mg/kg, 6 hr, Rat 2
  153 plasma concentration (title) / Liver concentration: BLQ
1.25 mg/kg, 10 hr, Rat 1
  153 plasma concentration (title) / Liver concentration: BLQ
female, SD, in vivo, 153 in plasma, IV 1.25 mg/kg, rat 1, read-out: Tmax
  Tmax: 15 min
female, SD, in vivo, 153 in plasma, PO 1.25 mg/kg, rat 1, read-out: Tmax
  Tmax: 30 min
[1]
  AUC(0-inf): 296 ng·h/mL
  MRT last: 39.4 min
female, SD, rat, in vivo, iv, 1.25 mg/kg, 153 in plasma, IV 1.25 mg/kg, Mean, read-out: AUC
  AUC: 295 ng·h/mL
female, SD, rat, in vivo, iv, 1.25 mg/kg, 153 in plasma, IV 1.25 mg/kg, Mean, read-out: Cmax
  Cmax: 557 ng/mL
female, SD, rat, in vivo, iv, 1.25 mg/kg, 153 in plasma, IV 1.25 mg/kg, Mean, read-out: T1/2 (converted)
  half-life: 55.3 min
[2]
  AUC(0-inf): 303 ng·h/mL
  MRT last: 40 min
female, SD, rat, in vivo, iv, 1.25 mg/kg, 153 in plasma, IV 1.25 mg/kg, rat 1, read-out: AUC
  AUC: 303 ng·h/mL
female, SD, rat, in vivo, iv, 1.25 mg/kg, 153 in plasma, IV 1.25 mg/kg, rat 1, read-out: Cmax
  Cmax: 563 ng/mL
female, SD, rat, in vivo, iv, 1.25 mg/kg, 153 in plasma, IV 1.25 mg/kg, rat 1, read-out: T1/2 (converted)
  half-life: 54.4 min
[3]
  AUC(0-inf): 288 ng·h/mL
  MRT last: 38.8 min
female, SD, rat, in vivo, iv, 1.25 mg/kg, 153 in plasma, IV 1.25 mg/kg, rat 2, read-out: AUC
  AUC: 288 ng·h/mL
female, SD, rat, in vivo, iv, 1.25 mg/kg, 153 in plasma, IV 1.25 mg/kg, rat 2, read-out: Cmax
  Cmax: 550 ng/mL
female, SD, rat, in vivo, iv, 1.25 mg/kg, 153 in plasma, IV 1.25 mg/kg, rat 2, read-out: T1/2 (converted)
  half-life: 56 min
female, SD, rat, in vivo, iv, 1.25 mg/kg, 153 iv 1.25 mg/kg, read-out: T1/2 of 153 in brain (converted)
  half-life: 35.8 min
female, SD, rat, in vivo, iv, 1.25 mg/kg, 153 iv 1.25 mg/kg, read-out: T1/2 of 153 in liver (converted)
  half-life: 37.6 min
female, SD, rat, in vivo, iv, 1.25 mg/kg, 153 iv 1.25 mg/kg, read-out: T1/2 of 153 in plasma (converted)
  half-life: 55.3 min
female, SD, rat, in vivo, iv, 1.25 mg/kg, 153 iv 1.25 mg/kg, read-out: mean Cmax of 153 in brain
  Cmax: 42.7 ng/g
female, SD, rat, in vivo, iv, 1.25 mg/kg, 153 iv 1.25 mg/kg, read-out: mean Cmax of 153 in liver
  Cmax: 762 ng/g
female, SD, rat, in vivo, iv, 1.25 mg/kg, 153 iv 1.25 mg/kg, read-out: mean Cmax of 153 in plasma
  Cmax: 557 ng/mL
female, SD, rat, in vivo, iv, 1.25 mg/kg, Liver, 1.25 mg/kg IV, rat 1, read-out: Cmax
  Cmax: 872 ng/g
female, SD, rat, in vivo, iv, 1.25 mg/kg, Liver, 1.25 mg/kg IV, rat 1
  MRT last: 44.7 min
female, SD, rat, in vivo, iv, 1.25 mg/kg, Liver, 1.25 mg/kg IV, rat 1, read-out: T1/2 (converted)
  half-life: 36.5 min
female, SD, rat, in vivo, iv, 1.25 mg/kg, Liver, 1.25 mg/kg IV, rat 2, read-out: Cmax
  Cmax: 652 ng/g
female, SD, rat, in vivo, iv, 1.25 mg/kg, Liver, 1.25 mg/kg IV, rat 2
  MRT last: 49.5 min
female, SD, rat, in vivo, iv, 1.25 mg/kg, iv 1.25 mg/kg, Mean, read-out: 153 brain concentration
  concentration at 0.25 h: 42.7 ng/g
female, SD, rat, in vivo, iv, 1.25 mg/kg, iv 1.25 mg/kg, Mean, read-out: 153 liver concentration
  concentration at 0.25 h: 762 ng/g
female, SD, rat, in vivo, iv, 1.25 mg/kg, iv 1.25 mg/kg, Mean, read-out: 153 plasma concentration
  concentration at 0.25 h: 557 ng/mL
female, SD, rat, in vivo, iv, 1.25 mg/kg, iv 1.25 mg/kg, Rat 1, read-out: 153 brain concentration
  concentration at 0.25 h: 45 ng/g
female, SD, rat, in vivo, iv, 1.25 mg/kg, iv 1.25 mg/kg, Rat 1, read-out: 153 liver concentration
  concentration at 0.25 h: 872 ng/g
female, SD, rat, in vivo, iv, 1.25 mg/kg, iv 1.25 mg/kg, Rat 1, read-out: 153 plasma concentration
  concentration at 0.25 h: 563 ng/mL
female, SD, rat, in vivo, iv, 1.25 mg/kg, iv 1.25 mg/kg, Rat 2, read-out: 153 brain concentration
  concentration at 0.25 h: 40.3 ng/g
female, SD, rat, in vivo, iv, 1.25 mg/kg, iv 1.25 mg/kg, Rat 2, read-out: 153 liver concentration
  concentration at 0.25 h: 652 ng/g
female, SD, rat, in vivo, iv, 1.25 mg/kg, iv 1.25 mg/kg, Rat 2, read-out: 153 plasma concentration
  concentration at 0.25 h: 550 ng/mL
female, SD, rat, in vivo, iv, 1.25 mg/kg, iv 1.25 mg/kg, 1 hr, Mean, read-out: 153 brain concentration
  concentration at 1 h: 14.1 ng/g
